Laboratory results from US9029393B2, “Adenosine receptor ligands and uses thereof” (Kaldi Pharma, SAS, priority 2009, dated 2015).

Key:
human A2A receptor = human A2A receptor (Homo sapiens, UniProt P29274); experiment: A2A-antagonist Ca++ functional assay (CGS21680 at EC80); type: cell-based; conditions: HEK cells expressing GFP-hA2A and Gα15, inhibition of CGS21680 (EC80)-induced Ca2+ increase
Description: Assay protocol: HEK cells stably expressing the human A2A receptor fused at its amino terminal domain to GFP, and cultured in Modified Eagle's Medium supplemented with 10% FCS, were transiently transfected by electroporation with plasmid DNA encoding the promiscuous G protein Gα15 in order to deviate the natural coupling of the receptor from AMPc production to calcium (Ca^2+) release pathway (Brabet et al., Neuropharmacology 37:1043-1051, 1998). Receptor activity was detected by changes in intracellular Ca^2+, measured using the fluorescent Ca^2+ sensitive dye, Fluo4AM (Molecular Probes®).
Cells were plated after transfection onto polyornithine coated, clear bottom, black-walled, 96-well plates and cultured for 24 hours. The day of the test, cells were washed with freshly prepared buffer B (HBSS 1×, Hepes 20 mM, MgSO4.7H2O 1 mM, Na2CO3 3.3 mM, CaCl2-2H2O 1.3 mM, 0.5% BSA, Probenecid 2.5 mM) and loaded at 37° C. in 5% CO2 for 1.5 hours with buffer B containing 1 μM Fluo4AM and 0.1 mg/mL Pluronic Acid. Afterwards cells were washed twice with buffer B and 50 μL of this buffer were added to each well. The tested compounds were incubated […] before addition of CGS21680 (used as reference agonist) at a concentration leading to 80% of its maximal activity (EC80). Afterwards, the intracellular Ca^2+ measurements were performed on a 60s kinetic by detection of the fluorescence intensity (excitation 485 nm, emission 525 nm) using the fluorescence microplate reader FlexStation® (Molecular Devices®). All data reflect three independent experiments. Dose-response curves were fitted by using the sigmoidal dose-response (variable slope) analyze in GraphPad Prism® program (San Diego) and IC50 of antagonist compound was calculated. Dose-response experiments were all performed in triplicate, three times independently.

hA2A receptor = hA2A receptor (Homo sapiens (Human), UniProt P29274); experiment: A2A FRET-based binding assay; conditions: HEK GFP-A2A stable cell line, dyed CGS15943-derived probe
hA2A receptor, sequence (P29274 whole entry, the tested form may be a part): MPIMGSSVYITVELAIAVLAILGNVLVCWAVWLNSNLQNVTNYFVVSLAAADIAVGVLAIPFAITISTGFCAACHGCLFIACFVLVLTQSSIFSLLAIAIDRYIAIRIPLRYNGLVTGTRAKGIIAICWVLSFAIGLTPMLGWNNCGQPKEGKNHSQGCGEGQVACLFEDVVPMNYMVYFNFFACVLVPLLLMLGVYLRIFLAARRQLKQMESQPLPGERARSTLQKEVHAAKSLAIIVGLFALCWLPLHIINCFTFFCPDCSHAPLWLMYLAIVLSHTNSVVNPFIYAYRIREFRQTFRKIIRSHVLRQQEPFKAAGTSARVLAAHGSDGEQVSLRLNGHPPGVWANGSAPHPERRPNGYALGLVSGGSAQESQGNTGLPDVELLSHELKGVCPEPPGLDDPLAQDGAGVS
Procedure: Assay protocol: Compounds were evaluated on an in-vitro binding assay developed based on the technology described in the patent WO 98/55873. This assay was developed from hA2A receptor that was fused at its amino terminal domain to Green Fluorescent Protein (GFP) and stably expressed in HEK cells. The probe used is a dyed ligand derived from the non-selective CGS15943. For the FRET-binding experiment, HEK GFP-A2A stable cell line was seeded onto poly-D-lysine precoated black-walled 96-well plates in normal growth media (0.7 10^5 cells per well). After 24 hours of culture at 37° C., the cell media was removed and cells were washed. The tested compounds were applied on cells by the FLIPR^TETRA® (Molecular Devices®) and incubated for 10 minutes prior to addition of the dyed probe. When a drug interacts with the receptor, the FRET signal measured by the variation of GFP fluorescence at 510 nm is disrupted. The time curves of ligand binding were recorded during 1000 seconds. (excitation Light Emitting Diode 470-495 nm, emission 510+/−10 nm). The percentage of inhibition allows the evaluation of the inhibitory activity of compounds in comparison to the antagonist A2A reference CGS15943. The dose-inhibition curves were fitted with variable slope, using GraphPad® Prism software, in order to determine […] and Ki values. The dose-inhibition experiments were all performed in duplicate, three times independently.

[1] = tested on: haloperidol-induced catalepsy; experiment: Haloperidol-induced catalepsy model in the mouse (bar test); type: in vivo

SMILES | IC50 (human A2A receptor) [µM] | melting point [°C] | Ki (hA2A receptor) [µM] | anti-cataleptic effect ([1]; 1 mg/kg i.p. 120 minutes after haloperidol, FIG. 1) | anti-cataleptic effect ([1]; 30 mg/kg i.p. 120 minutes after haloperidol, FIG. 1) | anti-cataleptic effect ([1]; 1, 3, 30 and 100 mg/kg i.p. 120 minutes after haloperidol (1 mg/kg i.p.), FIG. 1) | anti-cataleptic effect ([1]; 10 and 30 mg/kg per os 120 minutes after haloperidol, FIG. 2)
Nc1cc(C(=O)N2CCCCCC2)ccc1C(=O)c1cnc2ccc(F)cn12 [Example 30, [2-Amino-4-(azepane-1-carbonyl)-phenyl]-(6-fluoro-imidazo[1,2-a]pyridin-3-yl)-methanone] | 0.992 ± 0.011 | 141 to 152 | 0.103 ± 0.052 |  |  |  | 
O=C(c1ccc(C(=O)N2CCCc3ccccc32)cc1)c1cnc2ccccn12 [Example 71, [4-(3,4-Dihydro-2H-quinoline-1-carbonyl)-phenyl]-imidazo[1,2-a]pyridin-3-yl-methanone] | 1.83 ± 0.122 | 169 to 175 | 0.171 ± 0.07 |  |  |  | 
O=C(c1ccc(C(=O)N2CCCCCC2)cc1)c1cnc2ccc(F)cn12 [Example 14, [4-(Azepane-1-carbonyl)-phenyl]-(6-fluoro-imidazo[1,2-a]pyridin-3-yl)-methanone] | 0.195 ± 0.1 | 165 to 169 | 0.012 ± 0.006 | no anticataleptic activity | the most important catalepsy reversion | significant anti-cataleptic effect in a dose-dependent manner | significant anti-cataleptic effect in a dose-dependent manner
O=C(c1ccc2c(-c3cnc4ccc(F)cn34)noc2c1)N1CCCCCC1 [Example 113, Azepan-1-yl-[3-(6-fluoro-imidazo[1,2-a]pyridin-3-yl)-benzo[d]isoxazol-6-yl]-methanone] | 0.046 ± 0.003 | 218 to 219 | 0.004 ± 0.001 |  |  |  | 
O=C(c1ccc2c(c1)nnn2-c1cnc2ccc(F)cn12)N1CCCCCC1 [Example 132, 5-(Azepan-1-ylcarbonyl)-1-(6-fluoroimidazo[1,2-a]pyridin-3-yl)-1H-1,2,3-benzotriazole] | 0.326 ± 0.047 | 160 to 166 | 0.072 ± 0.01 |  |  |  | 
